Consider six molecules from DBAASP.

Experiment in all cases: ≥ marks a high value that may be exact or a test limit, other limits are often not marked, values filed in µg/mL are converted to µM
Experiment [1] deals with Salmonella enterica subsp. enterica serovar Enteritidis ATCC 13076.
Experiment [2] deals with Streptococcus mutans ATCC 25175.
Experiment [3] relates to Candida albicans ATCC 10231.
In experiment [4] the test system is Pseudomonas putida ATCC 17426.
In experiment [5] the test system is Staphylococcus aureus ATCC 15752.
Experiment [6] has as its system Escherichia coli ATCC 27325.
In experiment [7] the test system is Bacillus subtilis ATCC 62037.
Experiment [8] relates to Saccharomyces cerevisiae ATCC 44774.
For experiment [9], the system named is Cryptococcus neoformans ATCC 34881.
Experiment [10] relates to Pseudomonas aeruginosa 9.
In experiment [11] the test system is Pseudomonas aeruginosa 198.
Experiment [12] relates to Enterococcus faecium t62764.
Experiment [13] has as its system Escherichia coli ESBL 63103.
The test system of experiment [14] is Pseudomonas aeruginosa 213.
Experiment [15] has as its system Enterococcus faecalis f43559.
Experiment [16] relates to Enterococcus faecalis W61950.
The test system of experiment [17] is Pseudomonas aeruginosa H1030.
The subject of experiment [18] is Klebsiella pneumoniae ESBL 63575.
The test system of experiment [19] is Enterobacter cloacae 218R.
Experiment [20] deals with Pseudomonas aeruginosa H1027.
Experiment [21] relates to Escherichia coli ESBL 64771.
The subject of experiment [22] is Stenotrophomonas maltophilia ATCC 13637.
Experiment [23] concerns Staphylococcus aureus C623.
Experiment [24] deals with Klebsiella pneumoniae ESBL 61962.
Experiment [25] concerns Staphylococcus aureus ATCC 25923.
In experiment [26] the test system is Enterococcus faecalis ATCC 29212.
Experiment [27] has as its system Enterococcus faecium mic80.
Experiment [28] relates to Pseudomonas aeruginosa LES400.
The subject of experiment [29] is Pseudomonas aeruginosa PAO1 H103.
Experiment [30] deals with Staphylococcus aureus TK784.
The subject of experiment [31] is Klebsiella pneumoniae ATCC 10031.
Experiment [32] relates to Pseudomonas aeruginosa ATCC 27853.
Experiment [33] relates to Staphylococcus epidermidis ATCC 12228.
The subject of experiment [34] is Staphylococcus aureus ATCC 6538P.
For experiment [35], the system named is Escherichia coli ATCC 25922.
Experiment [36] deals with Salmonella enterica subsp. enterica serovar Typhimurium ATCC 14028.
Experiment [37] relates to Shigella dysenteriae ATCC 9752.
Experiment [38] deals with Bacillus subtilis ATCC 6633.
The test system of experiment [39] is Micrococcus luteus ATCC 10240.

Structures are written as SMILES. Converted amounts (≈) assume the structure as drawn.

Regarding `CC[C@H](C)[C@H](NC(=O)CNC(=O)[C@H](CCCCN)NC(=O)[C@H](CCCCN)NC(=O)[C@H](CCC(N)=O)NC(=O)[C@H](CC(C)C)NC(=O)[C@H](CCSC)NC(=O)[C@@H](NC(=O)[C@H](CCC(=O)O)NC(=O)CNC(=O)[C@@H](NC(=O)[C@H](Cc1ccccc1)NC(=O)[C@H](C)NC(=O)[C@H](CCCCN)NC(=O)CNC(=O)[C@H](Cc1ccccc1)NC(=O)[C@H](CCCCN)NC(=O)[C@H](CCCCN)NC(=O)[C@H](C)NC(=O)[C@H](CO)NC(=O)[C@H](Cc1cnc[nH]1)NC(=O)[C@H](CCSC)NC(=O)[C@H](C)NC(=O)[C@H](CCCCN)NC(=O)[C@@H]1CCCN1C(=O)[C@H](C)N)C(C)C)[C@@H](C)CC)C(=O)O` [APKAMHSAKKFGKAFVGEIMLQKKGI], the MIC in experiment [1] is 11.4 µM (≈ 32 µg/mL); in experiment [2] it was at least 45.4 µM; in [3], 11.4 µM (≈ 32 µg/mL); in experiment [4] it was 22.7 µM (≈ 64 µg/mL); in experiment [5], 22.7 µM (≈ 64 µg/mL); in experiment [6] it was 22.7 µM (≈ 64 µg/mL). For the same molecule, the figures for the MIC in experiment [7], in experiment [8] and in experiment [9] were 22.7 µM (≈ 64 µg/mL), 11.4 µM (≈ 32 µg/mL) and 5.68 µM (≈ 16 µg/mL), respectively.
Consider `N=C(N)NCCC[C@H](NC(=O)[C@H](CCCNC(=N)N)NC(=O)[C@@H](N)Cc1ccccc1)C(=O)N[C@@H](Cc1c[nH]c2ccccc12)C(=O)N[C@@H](Cc1c[nH]c2ccccc12)C(=O)N[C@@H](CCCCN)C(=O)N[C@@H](Cc1c[nH]c2ccccc12)C(=O)N[C@@H](Cc1ccccc1)C(=O)N[C@@H](CCCCN)C(=O)O` [FRRWWKWFK], for which the MIC in experiment [10] was 5.77 µM (≈ 8.3 µg/mL); in experiment [11], 1.46 µM (≈ 2.1 µg/mL); in experiment [12] it was 2.92 µM (≈ 4.2 µg/mL); in experiment [13], 5.77 µM (≈ 8.3 µg/mL); in experiment [14] it was 2.85 µM (≈ 4.1 µg/mL); in experiment [15], at least 46.5 µM. The minimum inhibitory concentration (MIC) in [16] was at least 93.8 µM; in experiment [17], 11.8 µM (≈ 17 µg/mL); in experiment [18], 11.8 µM (≈ 17 µg/mL); in [19] it was 11.8 µM (≈ 17 µg/mL); in experiment [20] it was 0.695 µM (≈ 1 µg/mL); in experiment [21], 2.92 µM (≈ 4.2 µg/mL). Also, the MIC is 0.417 µM (≈ 0.6 µg/mL) in experiment [22]; 1.46 µM (≈ 2.1 µg/mL) in experiment [23]; at least 46.5 µM in experiment [24]; 0.695 µM (≈ 1 µg/mL) in [25]; 11.8 µM (≈ 17 µg/mL) in experiment [26]; 2.92 µM (≈ 4.2 µg/mL) in experiment [27]. Further, the minimum inhibitory concentration (MIC) in experiment [28] is 2.85 µM (≈ 4.1 µg/mL); in [29] it was 0.695 µM (≈ 1 µg/mL).
In the case of `CC(C)C[C@H](NC(=O)[C@H](CC(C)C)NC(=O)[C@H](CCCCN)NC(=O)[C@H](CCCCN)NC(=O)[C@H](CC(C)C)NC(=O)[C@H](Cc1c[nH]c2ccccc12)NC(=O)[C@H](CCCCN)NC(=O)[C@H](CC(C)C)NC(=O)[C@H](CC(C)C)NC(=O)[C@H](CCCCN)NC(=O)[C@@H](N)CCCCN)C(N)=O` [KKLLKWLKKLL], the minimal inhibitory concentration (MIC) in experiment [30] is 2.84 µM (≈ 4 µg/mL); in experiment [31], 4.47 µM (≈ 6.3 µg/mL); in [32] it was 17.7 µM (≈ 25 µg/mL); in experiment [33], 4.47 µM (≈ 6.3 µg/mL); in experiment [34] it was 4.47 µM (≈ 6.3 µg/mL); in [35] it was 8.86 µM (≈ 12.5 µg/mL). The minimum inhibitory concentration (MIC) in experiment [36] stood at 17.7 µM (≈ 25 µg/mL); in [37], 4.47 µM (≈ 6.3 µg/mL); in [38], 4.47 µM (≈ 6.3 µg/mL); in [39], 4.47 µM (≈ 6.3 µg/mL).
With `CC(C)C[C@H](NC(=O)[C@H](Cc1c[nH]c2ccccc12)NC(=O)[C@H](CCCCN)NC(=O)[C@H](CC(C)C)NC(=O)[C@H](CC(C)C)NC(=O)[C@H](CCCCN)NC(=O)[C@H](CCCCN)NC(=O)[C@H](CC(C)C)NC(=O)[C@H](CC(C)C)NC(=O)[C@@H](N)CCCCN)C(=O)N[C@@H](CCCCN)C(N)=O` [KLLKKLLKWLK], the MIC was 5.67 µM (≈ 7.99 µg/mL) in experiment [30]; 1.42 µM (≈ 2 µg/mL) in experiment [31]; 2.84 µM (≈ 4 µg/mL) in experiment [32]; 1.42 µM (≈ 2 µg/mL) in [33]; 1.42 µM (≈ 2 µg/mL) in experiment [34]; 1.42 µM (≈ 2 µg/mL) in experiment [35]. Moreover, the MIC in [36] was found to be 1.42 µM (≈ 2 µg/mL); in experiment [37], 1.42 µM (≈ 2 µg/mL); in [38], 1.42 µM (≈ 2 µg/mL); in [39], 2.84 µM (≈ 4 µg/mL).
For the molecule `CC[C@H](C)[C@H](NC(=O)[C@H](CCCN=C(N)N)NC(=O)[C@H](CCCCN)NC(=O)[C@@H](NC(=O)[C@H](Cc1c[nH]c2ccccc12)NC(=O)[C@H](Cc1c[nH]c2ccccc12)NC(=O)[C@H](Cc1c[nH]c2ccccc12)NC(=O)[C@H](CCCN=C(N)N)NC(=O)[C@@H](N)CC(C)C)[C@@H](C)CC)C(=O)O` [LRWWWIKRI], the MIC in experiment [10] amounted to 27.3 µM (≈ 37 µg/mL); in [11] it was 13.3 µM (≈ 18 µg/mL); in experiment [12], 0.811 µM (≈ 1.1 µg/mL); in [13], 13.3 µM (≈ 18 µg/mL); in experiment [14], 27.3 µM (≈ 37 µg/mL); in experiment [15] it was 13.3 µM (≈ 18 µg/mL). Further, the MIC in experiment [16] was found to be 27.3 µM (≈ 37 µg/mL); in experiment [17], 13.3 µM (≈ 18 µg/mL); in [18], 27.3 µM (≈ 37 µg/mL); in [19], 27.3 µM (≈ 37 µg/mL); in [20] it was 3.39 µM (≈ 4.6 µg/mL); in experiment [21], 7.08 µM (≈ 9.6 µg/mL). Further, the minimum inhibitory concentration (MIC) in [22] is 1.77 µM (≈ 2.4 µg/mL); in experiment [23], 3.39 µM (≈ 4.6 µg/mL); in [24], at least 109 µM; in experiment [25], 3.39 µM (≈ 4.6 µg/mL); in experiment [26], 7.08 µM (≈ 9.6 µg/mL); in experiment [27] it was 3.39 µM (≈ 4.6 µg/mL). Moreover, the MIC was 13.3 µM (≈ 18 µg/mL) in [28] and 7.08 µM (≈ 9.6 µg/mL) in experiment [29].
Turning to `CC[C@H](C)[C@H](NC(=O)[C@@H]1CCCN1C(=O)[C@H](Cc1c[nH]c2ccccc12)NC(=O)[C@H](CCC(N)=O)NC(=O)[C@H](CC(C)C)NC(=O)CNC(=O)[C@H](C)NC(=O)[C@@H](N)CCCN=C(N)N)C(=O)NCC(=O)N[C@@H](CCCN=C(N)N)C(=O)N[C@@H](CC(C)C)C(=O)N[C@@H](CC(C)C)C(=O)N[C@@H](CCCN=C(N)N)C(=O)N[C@@H](CCCN=C(N)N)C(=O)N[C@@H](CC(C)C)C(=O)N[C@@H](CC(C)C)C(=O)N[C@@H](CCCN=C(N)N)C(=O)N[C@@H](CCCN=C(N)N)C(=O)N[C@@H](CC(C)C)C(=O)N[C@@H](CC(C)C)C(=O)N[C@@H](CCCN=C(N)N)C(=O)O` [RAGLQWPIGRLLRRLLRRLLR], the MIC in experiment [1] worked out at 0.765 µM (≈ 2 µg/mL); in experiment [2], 0.765 µM (≈ 2 µg/mL); in experiment [3] it was 0.765 µM (≈ 2 µg/mL); in experiment [4] it was 0.765 µM (≈ 2 µg/mL); in experiment [5], 0.383 µM (≈ 1 µg/mL); in [6] it was 0.383 µM (≈ 1 µg/mL). Further, the MIC in experiment [7] was found to be 0.765 µM (≈ 2 µg/mL); in [8], 0.765 µM (≈ 2 µg/mL); in experiment [9] it was 0.383 µM (≈ 1 µg/mL).
